Test results reported in patent US9315503B2, “Kinase inhibitors” (CHIESI FARMACEUTICI S.p.A., priority 2011, dated 2016).

How the values were obtained:
[1] = tested on: LPS-stimulated TNFα release from PBMCs; assay: LPS-stimulated PBMC TNFα release assay; format: cell-based; conditions: inhibition of TNFα release, human PBMCs, LPS 10 ng/ml, 18 h, ELISA, read-out: p38α inhibition (IC50 values)
Procedure: LPS-Stimulated PBMC TNFα Release Assay.
Peripheral Blood Mononuclear Cells (PBMCs) were isolated from healthy human volunteer blood using a standard density gradient centrifugation technique. Citrated blood was placed onto Histopaque™ and centrifuged. The PBMCs were removed from the density gradient interface and washed in phosphate buffered saline (PBS). The PBMCs were suspended in RPMI 1640 medium (without serum), dispensed into a 96-well plate and incubated at 37° C. for 3 h in a humidified incubator. After incubation, the medium was replaced (with medium containing 1% foetal bovine serum) and the plate incubated at 37° C., for 1 h, in the presence of test compound or the appropriate vehicle. LPS (10 ng/ml), or an appropriate vehicle control, was then added to the cells and the plate returned to the incubator for 18 h. Cell-free supernatants were removed and assayed for TNFα levels using an ELISA kit from R&D Systems.
A dose response curve to each test compound was performed and the effect of compound in each experiment was expressed as a percentage inhibition of the control TNFα release. Dose response curves were plotted and compound potency (IC50) was determined. Compounds were tested in at least three separate experiments.

[2] = target: T1, p38alpha (Homo sapiens, UniProt Q16539); assay: P38Alpha enzyme inhibition assay (Alphascreen kinase activity assay); format: biochemical; conditions: 100 pM p38alpha, 250 μM ATP, 2 hours pre-incubation at 25° C., read-out: p38α inhibition (IC50 values)
T1 construct: purchased Invitrogen PV3304
In short: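 p38α (100 pM) with ATF-2 fusion protein substrate (0.3 µg/ml) in pH 7.5 HEPES/MgCl2 buffer, 1% DMSO, preincubated 2 h at 25°C with compound. Reaction started with 250 µM ATP, ran 1 h at 25°C, then stopped with EDTA. Phospho-ATF2 antibody detected by AlphaScreen luminescence; IC50 from concentration-response curves.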

T1 sequence (Q16539 whole entry): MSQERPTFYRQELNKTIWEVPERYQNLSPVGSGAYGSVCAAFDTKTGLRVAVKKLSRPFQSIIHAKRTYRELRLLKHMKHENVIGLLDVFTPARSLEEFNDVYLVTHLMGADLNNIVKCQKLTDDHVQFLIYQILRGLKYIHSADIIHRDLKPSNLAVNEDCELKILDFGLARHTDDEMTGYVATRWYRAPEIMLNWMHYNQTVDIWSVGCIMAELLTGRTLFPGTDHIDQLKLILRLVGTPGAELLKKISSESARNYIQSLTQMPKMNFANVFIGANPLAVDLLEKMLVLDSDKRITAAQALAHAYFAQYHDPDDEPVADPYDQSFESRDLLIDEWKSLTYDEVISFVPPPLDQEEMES

SMILES	IC50 [1]	IC50 [2]
Cc1ccc(-n2nc(C(C)(C)C)cc2NC(=O)N[C@H]2CC[C@@H](Oc3ccc4nnc(NC(C)C)n4c3)c3ccccc32)cc1 [Example 8, 1-(5-tert-Butyl-2-p-tolyl-2H-pyrazol-3-yl)-3-[(1S,4R)-4-(3-isopropylamino-[1,2,4]triazolo[4,3-a]pyridin-6-yloxy)-1,2,3,4-tetrahydro-naphthalen-1-yl]-urea]	< 10 nM	< 10 nM
Cc1ccc(-n2nc(C(C)(C)C)cc2NC(=O)N[C@H]2CC[C@@H](Oc3ccc(C#N)nc3)c3ccccc32)cc1 [Example 9, 1-(5-tert-Butyl-2-p-tolyl-2H-pyrazol-3-yl)-3-[(1S,4R)-4-(6-cyano-pyridin-3-yloxy)-1,2,3,4-tetrahydro-naphthalen-1-yl]-urea]	100 to 1000 nM	< 10 nM
COCC(=O)Nc1cc(O[C@H]2CC[C@H](NC(=O)Nc3cc(C(C)(C)C)nn3-c3ccc(C)cc3)c3ccccc32)ccn1 [Example 10, N-(4-{(1S,4S)-4-[3-(5-tert-Butyl-2-p-tolyl-2H-pyrazol-3-yl)-ureido]-1,2,3,4-tetrahydro-naphthalen-1-yloxy}-pyridin-2-yl)-2-methoxy-acetamide]	< 10 nM	< 10 nM
Cc1ccc(-n2nc(C(C)(C)C)cc2NC(=O)N[C@H]2CC[C@@H](Oc3ccc4cnn(CCO)c4c3)c3ccccc32)cc1 [Example 11, 1-(5-tert-Butyl-2-p-tolyl-2H-pyrazol-3-yl)-3-{(1S,4R)-4-[1-(2-hydroxy-ethyl)-1H-indazol-6-yloxy]-1,2,3,4-tetrahydro-naphthalen-1-yl}-urea]	10 to 100 nM	< 10 nM
Cc1ccc(-n2nc(C(C)(C)C)cc2NC(=O)N[C@H]2CC[C@@H](Oc3ccc4nnc([C@H]5CCCN5)n4c3)c3ccccc32)cc1 [Example 12, 1-(5-tert-Butyl-2-p-tolyl-2H-pyrazol-3-yl)-3-[(1S,4R)-4-((R)-3-pyrrolidin-2-yl-[1,2,4]triazolo[4,3-a]pyridin-6-yloxy)-1,2,3,4-tetrahydro-naphthalen-1-yl]-urea]	< 10 nM	< 10 nM
COCC(=O)Nc1cc(O[C@@H]2CC[C@H](NC(=O)Nc3cc(C(C)(C)C)nn3-c3ccc(C)cc3)c3ccccc32)ccn1 [Example 13, N-(4-{(1R,4S)-4-[3-(5-tert-Butyl-2-p-tolyl-2H-pyrazol-3-yl)-ureido]-1,2,3,4-tetrahydro-naphthalen-1-yloxy}-pyridin-2-yl)-2-methoxy-acetamide]	< 10 nM	< 10 nM
Cc1ccc(-n2nc(C(C)(C)C)cc2NC(=O)N[C@H]2CC[C@@H](Oc3ccc4nnc(-c5ccc(CN6CCOCC6)cc5)n4c3)c3ccccc32)cc1 [Example 18, 1-(5-tert-Butyl-2-p-tolyl-2H-pyrazol-3-yl)-3-{(1S,4R)-4-[3-(4-morpholin-4-ylmethyl-phenyl)-[1,2,4]triazolo[4,3-a]pyridin-6-yloxy]-1,2,3,4-tetrahydro-naphthalen-1-yl]-urea]	< 10 nM	< 10 nM
Cc1ccc(-n2nc(C(C)(C)C)cc2NC(=O)N[C@H]2CC[C@@H](Oc3ccc4nnc(-c5cccc(CN6CCOCC6)c5)n4c3)c3ccccc32)cc1 [Example 19, 1-(5-tert-Butyl-2-p-tolyl-2H-pyrazol-3-yl)-3-{(1S,4R)-4-[3-(3-morpholin-4-ylmethyl-phenyl)-[1,2,4]triazolo[4,3-a]pyridin-6-yloxy]-1,2,3,4-tetrahydro-naphthalen-1-yl}-urea]	< 10 nM	< 10 nM
Cc1ccc(-n2nc(C(C)(C)C)cc2NC(=O)N[C@H]2CC[C@@H](Oc3ccc4nnc(-c5ccccc5CN5CCOCC5)n4c3)c3ccccc32)cc1 [Example 20, 1-(5-tert-Butyl-2-p-tolyl-2H-pyrazol-3-yl)-3-{(1S,4R)-4-[3-(2-morpholin-4-ylmethyl-phenyl)-[1,2,4]triazolo[4,3-a]pyridin-6-yloxy]-1,2,3,4-tetrahydro-naphthalen-1-yl}-urea]	< 10 nM	< 10 nM
Cc1ccc(-n2nc(C(C)(C)C)cc2NC(=O)N[C@H]2CC[C@@H](Oc3ccc(CN4CCOCC4)nc3)c3ccccc32)cc1 [Example 21, 1-(5-tert-Butyl-2-p-tolyl-2H-pyrazol-3-yl)-3-[(1S,4R)-4-(6-morpholin-4-ylmethyl-pyridin-3-yloxy)-1,2,3,4-tetrahydro-naphthalen-1-yl]-urea]	10 to 100 nM	10 to 100 nM
Cc1ccc(-n2nc(C(C)(C)C)cc2NC(=O)N[C@H]2CC[C@@H](Oc3ccc4nnc(CC5CCN(C)CC5)n4c3)c3ccccc32)cc1 [Example 22, 1-(5-tert-Butyl-2-p-tolyl-2H-pyrazol-3-yl)-3-{(1S,4R)-4-[3-(1-methyl-piperidin-4-ylmethyl)-[1,2,4]triazolo[4,3-a]pyridin-6-yloxy]-1,2,3,4-tetrahydro-naphthalen-1-yl}-urea]	100 to 1000 nM	< 10 nM
Cc1ccc(-n2nc(C(C)(C)C)cc2NC(=O)N[C@H]2CC[C@@H](Oc3ccc4nnc(CC5CCN(CC(F)F)CC5)n4c3)c3ccccc32)cc1 [Example 23, 1-(5-tert-Butyl-2-p-tolyl-2H-pyrazol-3-yl)-3-((1S,4R)-4-{3-[1-(2,2-difluoro-ethyl)-piperidin-4-ylmethyl]-[1,2,4]triazolo[4,3-a]pyridin-6-yloxy}-1,2,3,4-tetrahydro-naphthalen-1-yl)-urea]	< 10 nM	< 10 nM
Cc1ccc(-n2nc(C(C)(C)C)cc2NC(=O)N[C@H]2CC[C@@H](Oc3ccc4nnc(N5CCC(O)CC5)n4c3)c3ccccc32)cc1 [Example 24, 1-(5-tert-Butyl-2-p-tolyl-2H-pyrazol-3-yl)-3-[(1S,4R)-4-[3-(4-hydroxypiperidin-1-yl)-[1,2,4]triazolo[4,3-a]pyridine-6-yloxy]-1,2,3,4-tetrahydro-naphthalen-1-yl]-urea]	< 10 nM	< 10 nM
Cc1ccc(-n2nc(C(C)(C)C)cc2NC(=O)N[C@H]2CC[C@@H](Oc3ccc4nnc(N(C)CCO)n4c3)c3ccccc32)cc1 [Example 25, 1-(5-tert-Butyl-2-p-tolyl-2H-pyrazol-3-yl)-3-[(1S,4R)-4-{3-[(2-hydroxy-ethyl)-methyl-amino]-[1,2,4]triazolo[4,3-a]pyridine-6-yloxy]-1,2,3,4-tetrahydro-naphthalen-1-yl]-urea]	< 10 nM	< 10 nM
Cc1ccc(-n2nc(C(C)(C)C)cc2NC(=O)N[C@H]2CC[C@@H](Oc3ccc4nnc(N5CC[C@H](O)C5)n4c3)c3ccccc32)cc1 [Example 26, 1-(5-tert-Butyl-2-p-tolyl-2H-pyrazol-3-yl)-3-{(1S,4R)-4-[3-((S)-3-hydroxy-pyrrolidin-1-yl)-[1,2,4]triazolo[4,3-a]pyridin-6-yloxy]-1,2,3,4-tetrahydro-naphthalen-1-yl}-urea]	< 10 nM	< 10 nM
Cc1ccc(-n2nc(C(C)(C)C)cc2NC(=O)N[C@H]2CC[C@@H](Oc3ccc4nnc(N5CCC[C@@H]5CO)n4c3)c3ccccc32)cc1 [Example 27, 1-(5-tert-Butyl-2-p-tolyl-2H-pyrazol-3-yl)-3-{(1S,4R)-4-[3-((R)-2-hydroxymethyl-pyrrolidin-1-yl)-[1,2,4]triazolo[4,3-a]pyridin-6-yloxy]-1,2,3,4-tetrahydro-naphthalen-1-yl}-urea]	< 10 nM	< 10 nM
Cc1ccc(-n2nc(C(C)(C)C)cc2NC(=O)N[C@H]2CC[C@@H](Oc3ccc4nnc(N5CCC[C@H]5CO)n4c3)c3ccccc32)cc1 [Example 28, 1-(5-tert-Butyl-2-p-tolyl-2H-pyrazol-3-yl)-3-{(1S,4R)-4-[3-((S)-2-hydroxymethyl-pyrrolidin-1-yl)-[1,2,4]triazolo[4,3-a]pyridin-6-yloxy]-1,2,3,4-tetrahydro-naphthalen-1-yl}-urea]	< 10 nM	< 10 nM
CC(C)(C)c1cc(NC(=O)N[C@H]2CC[C@@H](Oc3ccc4nnc(N5CCCCC5)n4c3)c3ccccc32)n(-c2cccc(CO)c2)n1 [Example 29, 1-[5-tert-Butyl-2-(3-hydroxymethyl-phenyl)-2H-pyrazol-3-yl]-3-[(1S,4R)-4-(3-piperidin-1-yl-[1,2,4]triazolo[4,3-a]pyridin-6-yloxy)-1,2,3,4-tetrahydro-naphthalen-1-yl]-urea]	< 10 nM	< 10 nM
CCOC(=O)c1cccc(-n2nc(C(C)(C)C)cc2NC(=O)N[C@H]2CC[C@@H](Oc3ccc4nnc([C@@H]5CCCN5C)n4c3)c3ccccc32)c1 [Example 30, 3-[3-tert-Butyl-5-(3-{(1S,4R)-4-[3-((S)-1-methyl-pyrrolidin-2-yl)-[1,2,4]triazolo[4,3-a]pyridin-6-yloxy]-1,2,3,4-tetrahydro-naphthalen-1-yl}-ureido)-pyrazol-1-yl]-benzoic acid ethyl ester]	< 10 nM	< 10 nM
CN1CCC[C@H]1c1nnc2ccc(O[C@@H]3CC[C@H](NC(=O)Nc4cc(C(C)(C)C)nn4-c4cccc(CO)c4)c4ccccc43)cn12 [Example 31, 1-[5-tert-Butyl-2-(3-hydroxymethyl-phenyl)-2H-pyrazol-3-yl]-3-{(1S,4R)-4-[3-((S)-1-methyl-pyrrolidin-2-yl)-[1,2,4]triazolo[4,3-a]pyridin-6-yloxy]-1,2,3,4-tetrahydro-naphthalen-1-yl}-urea]	< 10 nM	< 10 nM
